Results from paper PMC5424463, “A strategy based on nucleotide specificity leads to a subfamily-selective and cell-active inhibitor of N ^6-methyladenosine demethylase FTO” (Chemical Science, 2014).
Where a name gives a salt, the structure may show the parent alone. Read-outs that look alike come from different tables or passages of the source.

Legend:
FTO [1] = target: T1, FTO (Homo sapiens, UniProt Q9C0B1); assay: HPLC-based inhibition assay for FTO, m3T substrate; format: biochemical
T1 construct: The human full length FTO construct used in this study; made in house; host or cells: E. coli BL21 (DE3) Rosetta T1R
Description: HPLC-based inhibition assays for FTO
The assay was modified from previously reported method.[17] It is performed in triplicate for each inhibitor, in a final reaction volume of 25 µL. Reaction consisted of FTO (1 µM), 2OG (50 µM), (NH4)2Fe(SO4)2·6H2O (50 µM), L-ascorbate (2 mM), 3-methylthymidine (m3T substrate, 10 µM) in 50 mM HEPES buffer, pH 7.5, and inhibitor at various concentrations (final DMSO concentration not more than 1% v/v of assay mix). The reaction was incubated at 4°C for 1 h, before analysis on a HPLC system. The substrate (m3T) and the demethylated product (thymidine) were separated using a Zorbax C18 column (4.6 mm x 250 mm) with a […]
flow rate of 1 mL/min at room temperature.
The percentage inhibition was estimated based on the peak areas of the 3-methylthymidine substrate and the thymidine product. For IC50 determination, eight different concentrations of […]
the variation in percentage demethylation at different inhibitor concentrations, using nonlinear regression, with normalized dose-response fit on GraphPad Prism 6.0™.
HPLC-based assay for FTO was also performed using an m6A-ssRNA as substrate. The assay was modified from previously reported method.[21] All reaction conditions are as described for the inhibition of m3T demethylation above, except that a 15-mer ssRNA with the sequence 5’-CUUGUCA(m6A)CAGCAGA-3’ (Yale University, W.M. Keck Foundation Biotechnology Resource Laboratory) was used as substrate (10 µM). The reaction was analysed on a bio-inert HPLC system. The m6A-ssRNA substrate and the corresponding demethylated product were separated using a Dionex DNAPac PA200 anion-exchange

ALKBH5 = target: T2, ALKBH5 (Homo sapiens, UniProt Q6P6C2); assay: Differential scanning fluorimetry (DSF)-based binding assay, ALKBH5; conditions: 100 μM compound, 2 μM protein; for ΔTm at 100 µM: 50 μM MnCl2, read-out: Tm shift (ALKBH5); for Tm shift (ALKBH5): 50 μM MnCl2
T2 construct: pNIC28-Bsa4 ALKBH5 (encompassing residues 66-292); made in house; host or cells: E. coli BL21 (DE3) Rosetta T1R
Description: (§1) Superdex-200 column (GE Healthcare) pre-equilibrated with 20 mM HEPES, pH 7.5, 300 mM NaCl, 10% (v/v) glycerol, 0.5 mM TCEP. […]
(§2) Differential scanning fluorimetry (DSF)-based binding assay
(§3) DSF-based binding assay was performed using a MiniOpticon™ Real-Time PCR Detection System (Bio-Rad), monitoring protein unfolding using SYPRO orange (Invitrogen) according […]
(§4) to the reported method.[16] […]
(§5) and emission respectively. Reaction mixes contained 2 μM protein, 50 μM MnCl2, 100 μM […]
(§6) Reagents were prepared in 50mM
(§7) HEPES buffer, pH 7.5 except metals, which were dissolved as 100 mM stocks in 20 mM HCl, then further diluted in MilliQ water. Compounds tested were prepared in 100% DMSO and added such that the final concentration of DMSO was not more than 1% v/v of assay […]
(§8) increased linearly by 1°C min -1. The software provided was used to perform global minimum subtraction. The inflection point, representing Tm, was calculated by fitting the Boltzmann equation to the sigmoidal curves obtained; data were processed using GraphPad Prism 6.0™.
(§9) The Tm shift caused by the addition of small molecules/ fragments was determined by subtraction of the “reference” Tm (protein incubated with metal and 1% v/v DMSO) from the Tm obtained in the presence of the compound. […]

ALKBH3 = target: T3, ALKBH3 (Homo sapiens, UniProt Q96Q83); assay: Differential scanning fluorimetry (DSF)-based binding assay, ALKBH3; conditions: DSF, 100 μM compound, 2 μM protein, 50 μM MnCl2; for ΔTm at 100 µM: read-out: Tm shift (ALKBH3)
T3 construct: Human ALKBH3 (encompassing residues 1- 286); purchased ProSpec-Tany Technogene Ltd, Israel
T3 sequence (Q96Q83 1-286): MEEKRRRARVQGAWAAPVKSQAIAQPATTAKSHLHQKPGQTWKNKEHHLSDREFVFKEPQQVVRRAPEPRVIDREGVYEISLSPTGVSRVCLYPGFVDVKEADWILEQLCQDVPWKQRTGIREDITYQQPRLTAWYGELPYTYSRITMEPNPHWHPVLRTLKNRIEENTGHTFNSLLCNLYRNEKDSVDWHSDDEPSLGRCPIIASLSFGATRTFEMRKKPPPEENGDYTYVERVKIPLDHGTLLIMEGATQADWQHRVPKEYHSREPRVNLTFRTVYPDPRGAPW
Description: as §1, §2
(§10) DSF-based binding assay was performed using a MiniOpticon™ Real-Time PCR Detection System (Bio-Rad), monitoring protein unfolding using SYPRO orange (Invitrogen) according to the reported method.[16] FAM (492 nm) and ROX (610 nm) filters were used for excitation and emission respectively. Reaction mixes contained 2 μM protein, 50 μM MnCl2, 100 μM compounds, 5x SYPRO orange in a final volume of 50 μl. Reagents were prepared in 50mM HEPES buffer, pH 7.5 except metals, which were dissolved as 100 mM stocks in 20 mM HCl, then further diluted in MilliQ water. Compounds tested were prepared in 100% DMSO and added such that the final concentration of DMSO was not more than 1% v/v of assay […]
(§11) mix. Fluorescence readings were taken every 1°C in the range 25-95°C, with the temperature increased linearly by 1°C min -1. The software provided was used to perform global minimum subtraction. The inflection point, representing Tm, was calculated by fitting the Boltzmann equation to the sigmoidal curves obtained; data were processed using GraphPad Prism 6.0™.
(§12) The Tm shift caused by the addition of small molecules/ fragments was determined by subtraction of the “reference” Tm (protein incubated with metal and 1% v/v DMSO) from the Tm obtained in the presence of the compound. The assay was performed in triplicate for each inhibitor, with standard deviations typically < 1°C. […]

FTO [2] = target: T1, FTO; assay: Differential scanning fluorimetry (DSF)-based binding assay, FTO; conditions: 100 μM compound, 2 μM protein; for ΔTm at 100 µM: 50 μM MnCl2, read-out: Tm shift (FTO); for Tm shift (FTO): 50 μM MnCl2
Description: as §1, §2, §3, §4, §5, §6, §7, §8, §9

AlkB = target: T4, AlkB (Escherichia coli, UniProt P05050); assay: Differential scanning fluorimetry (DSF)-based binding assay, AlkB; conditions: 100 μM compound, 2 μM protein; for ΔTm at 100 µM: 50 μM MnCl2, read-out: Tm shift (AlkB); for Tm shift (AlkB): 50 μM MnCl2
T4 construct: made in house; host or cells: E. coli BL21 (DE3) Rosetta T1R
Description: as §1, §2, §10, §11, §12

ALKBH2 = target: T5, ALKBH2 (Homo sapiens, UniProt Q6NS38); assay: Differential scanning fluorimetry (DSF)-based binding assay, ALKBH2; conditions: DSF, 100 μM compound, 2 μM protein, 50 μM MnCl2; for ΔTm at 100 µM: read-out: Tm shift (ALKBH2)
T5 construct: made in house; host or cells: E. coli BL21 (DE3)
T5 sequence (Q6NS38 56-258): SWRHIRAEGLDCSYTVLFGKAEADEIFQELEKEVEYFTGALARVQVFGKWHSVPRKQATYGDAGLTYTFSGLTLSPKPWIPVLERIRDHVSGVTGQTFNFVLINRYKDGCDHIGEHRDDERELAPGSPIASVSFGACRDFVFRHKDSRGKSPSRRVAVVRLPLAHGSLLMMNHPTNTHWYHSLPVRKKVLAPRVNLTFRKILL
Description: as §1, §2, §10, §11, §12

[3] = HPLC-based demethylase assay, m3T substrate, read-out: IC50 (FTO)

T1 sequence (Q9C0B1 whole entry): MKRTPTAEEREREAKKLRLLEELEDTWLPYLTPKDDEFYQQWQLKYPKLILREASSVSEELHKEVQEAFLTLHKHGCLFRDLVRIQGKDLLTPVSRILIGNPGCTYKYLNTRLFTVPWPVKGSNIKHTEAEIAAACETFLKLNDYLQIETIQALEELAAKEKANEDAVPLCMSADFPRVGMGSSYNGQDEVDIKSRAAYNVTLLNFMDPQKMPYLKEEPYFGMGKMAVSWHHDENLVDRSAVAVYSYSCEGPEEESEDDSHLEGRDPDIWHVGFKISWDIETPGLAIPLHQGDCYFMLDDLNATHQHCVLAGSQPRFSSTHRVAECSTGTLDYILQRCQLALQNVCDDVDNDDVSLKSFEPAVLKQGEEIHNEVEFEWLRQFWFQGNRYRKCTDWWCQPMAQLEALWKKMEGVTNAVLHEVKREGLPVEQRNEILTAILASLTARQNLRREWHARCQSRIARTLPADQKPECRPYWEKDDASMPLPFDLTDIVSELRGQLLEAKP
T2 sequence (Q6P6C2 66-292): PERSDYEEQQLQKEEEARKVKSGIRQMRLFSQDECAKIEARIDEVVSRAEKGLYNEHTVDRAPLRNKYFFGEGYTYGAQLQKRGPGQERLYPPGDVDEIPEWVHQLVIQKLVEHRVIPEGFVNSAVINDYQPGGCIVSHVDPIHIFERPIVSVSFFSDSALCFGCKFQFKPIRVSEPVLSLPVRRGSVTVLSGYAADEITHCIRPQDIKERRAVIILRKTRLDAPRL
T4 sequence (P05050 12-216): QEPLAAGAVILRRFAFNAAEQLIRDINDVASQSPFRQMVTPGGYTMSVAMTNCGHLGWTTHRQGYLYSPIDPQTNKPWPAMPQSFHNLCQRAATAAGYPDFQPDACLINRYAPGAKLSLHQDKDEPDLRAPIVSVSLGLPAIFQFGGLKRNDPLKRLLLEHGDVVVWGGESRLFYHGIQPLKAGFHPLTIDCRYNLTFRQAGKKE

`NNC(=O)CCC(=O)O` [Compound 1, succinate hydrazide] showed an IC50 (FTO [1]; [3]) greater than 100 µM.
`NNC(=O)/C=C/C(=O)O` [Compound 2, fumarate hydrazide] gave an IC50 (FTO [1]; [3]) greater than 100 µM.
With `NNC(=O)/C=C\C(=O)O` [Compound 3, maleate hydrazide] the IC50 (FTO [1]; [3]) was greater than 100 µM.
In the case of `O=C(O)/C=C/C(=O)NNC(=O)c1cnc2ccccc2c1` [Compound 8], the “IC50 (FTO)” value (FTO [1]; HPLC-based demethylase assay, m3T substrate) is reported as “low micromolar range”.
Work on `CN(C)NC(=O)CCC(=O)O` [daminozide, reference compound] yielded an IC50 (FTO [1]) greater than 100 µM.
`Cc1cn([C@H]2C[C@H](O)[C@@H](CO)O2)c(=O)n(C)c1=O` [m3T, N ^3-methylthymidine] showed a ΔTm at 100 µM (ALKBH5) of 1.1 °C, a ΔTm at 100 µM (ALKBH3) of 1.3 °C and a ΔTm at 100 µM (FTO [2]) of 12.1 °C. It also gave a ΔTm at 100 µM (AlkB) of 1.4 °C and a ΔTm at 100 µM (ALKBH2) of 1.1 °C.
For `CNc1ncnc2c1ncn2[C@@H]1O[C@H](CO)[C@@H](O)[C@H]1O` [m6A, N ^6-methyladenosine], the ΔTm at 100 µM (ALKBH5) was 9.8 °C, the ΔTm at 100 µM (ALKBH3) was 2.1 °C and the ΔTm at 100 µM (FTO [2]) was 2.4 °C. It also gave a ΔTm at 100 µM (AlkB) of 2.6 °C and a ΔTm at 100 µM (ALKBH2) of 1.3 °C.
For “ATTGTGG(A)CUGCAGC: unmethylated counterpart of the 15-mer m6A ssRNA”, the “Tm shift (ALKBH5)” value (ALKBH5) was 3.6 °C, the “Tm shift (ALKBH3)” value (ALKBH3) was 3.5 °C and the “Tm shift (FTO)” value (FTO [2]) was 3.4 °C. For the same molecule, the “Tm shift (AlkB)” value (AlkB) was 2.4 °C and the “Tm shift (ALKBH2)” value (ALKBH2) was 1.2 °C.
In the case of “ATTGTGG(T)CTGCAGC: unmethylated counterpart of the 15-mer m3T ssDNA”, the “Tm shift (ALKBH5)” value (ALKBH5) is reported as 3.4 °C, the “Tm shift (ALKBH3)” value (ALKBH3) is reported as 2.4 °C and the “Tm shift (FTO)” value (FTO [2]) is reported as 3.2 °C. The “Tm shift (AlkB)” value (AlkB) was 2.7 °C and the “Tm shift (ALKBH2)” value (ALKBH2) was 1.3 °C.
With “ATTGTGG(m3T)CTGCAGC: 15-mer m3T-containing ssDNA” the “Tm shift (ALKBH5)” value (ALKBH5) was 2.6 °C, the “Tm shift (ALKBH3)” value (ALKBH3) was 2.9 °C and the “Tm shift (FTO)” value (FTO [2]) was 3.0 °C. For the same molecule, the “Tm shift (AlkB)” value (AlkB) was 3.1 °C and the “Tm shift (ALKBH2)” value (ALKBH2) was 1.5 °C.
For “ATTGTGG(m6A)CUGCAGC: 15-mer m6A-containing ssRNA”, the “Tm shift (ALKBH5)” value (ALKBH5) was 3.5 °C, the “Tm shift (ALKBH3)” value (ALKBH3) was 3.0 °C and the “Tm shift (FTO)” value (FTO [2]) was 3.0 °C. For the same molecule, the “Tm shift (AlkB)” value (AlkB) was 2.7 °C and the “Tm shift (ALKBH2)” value (ALKBH2) was 1.0 °C.
